The target of this assay is IRAK4 (Homo sapiens (Human), UniProt Q9NWZ3). Put plainly: IRAK-4 AlphaScreen biochemical kinase assay. The following applies: 1 nM IRAK4, 1 mM ATP, 3.5 h at RT. In a few lines: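 AlphaScreen read-out: streptavidin beads bind the biotinylated peptide and protein A beads bind the anti-phosphothreonine antibody, so energy transfer reports phosphorylation of the peptide. The kinase is human IRAK-4.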

Where only a bound is given, the exact number is not on record here.

IRAK4, sequence (Q9NWZ3 whole entry, species assumed): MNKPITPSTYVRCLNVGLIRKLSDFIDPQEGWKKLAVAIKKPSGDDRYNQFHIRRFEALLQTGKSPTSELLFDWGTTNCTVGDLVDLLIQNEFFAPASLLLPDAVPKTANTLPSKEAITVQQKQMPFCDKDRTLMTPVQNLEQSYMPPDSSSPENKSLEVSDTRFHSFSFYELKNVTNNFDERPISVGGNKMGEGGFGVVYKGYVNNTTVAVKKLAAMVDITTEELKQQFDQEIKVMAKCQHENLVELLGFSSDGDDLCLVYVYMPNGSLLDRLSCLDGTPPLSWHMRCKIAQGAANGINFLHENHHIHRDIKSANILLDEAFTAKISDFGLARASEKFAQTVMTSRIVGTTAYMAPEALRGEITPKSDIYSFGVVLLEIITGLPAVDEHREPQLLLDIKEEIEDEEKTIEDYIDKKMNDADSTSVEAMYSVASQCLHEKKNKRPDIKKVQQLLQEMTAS

As to `C[C@@H](N)c1cccc(-c2ccc3cnn(-c4cccc(CO)n4)c3c2)n1` [Example 144, (R)-(6-(6-(6-(1-aminoethyl)pyridin-2-yl)-1H-indazol-1-yl)pyridin-2-yl)methanol], the 50% inhibitory concentration (IC50) – broadly, the point on the concentration scale where inhibition reaches its midpoint – was under 100 nM. With `CCC[C@H](N)c1cccc(-c2ccc3cnn(-c4cccc(CO)n4)c3c2)n1` [Example 145, (S)-(6-(6-(6-(1-aminobutyl)pyridin-2-yl)-1H-indazol-1-yl)pyridin-2-yl)methanol], the concentration for half-maximal inhibition (IC50) was under 100 nM. The figure for `CCC[C@@H](N)c1cccc(-c2ccc3cnn(-c4cccc(CO)n4)c3c2)n1` [Example 146, (R)-(6-(6-(6-(1-aminobutyl)pyridin-2-yl)-1H-indazol-1-yl)pyridin-2-yl)methanol] is under 100 nM; for `Cc1cccc(-n2ncc3ccc(-c4cc(C(N)=O)ccn4)cc32)n1` [Example 201, 2-(1-(6-methylpyridin-2-yl)-1H-indazol-6-yl)isonicotinamide] it is over 10000 nM; for `Cc1cccc(-n2ncc3ccc(-c4cncc(N(C)C)c4)cc32)n1` [Example 202, N,N-dimethyl-5-(1-(6-methylpyridin-2-yl)-1H-indazol-6-yl)pyridin-3-amine] it is 100 to 1000 nM. For `Cc1cccc(-n2ncc3ccc(-c4cncc(N5CCCC5)c4)cc32)n1` [Example 203, 1-(6-methylpyridin-2-yl)-6-(5-(pyrrolidin-1-yl)pyridin-3-yl)-1H-indazole] the value was 1000 to 10000 nM; for `Cc1cccc(-n2ncc3ccc(-c4cc(N)cnc4C)cc32)n1` [Example 204, 6-methyl-5-(1-(6-methylpyridin-2-yl)-1H-indazol-6-yl)pyridin-3-amine], 100 to 1000 nM; for `Nc1cncc(-c2ccc3cnn(-c4cccc(C5CCCC5)n4)c3c2)c1` [Example 205, 5-(1-(6-cyclopentylpyridin-2-yl)-1H-indazol-6-yl)pyridin-3-amine], over 10000 nM. For `Cc1cccc(-n2ncc3ccc(-c4cccc5c4CCNC5=O)cc32)n1` [Example 206, 5-(1-(6-methylpyridin-2-yl)-1H-indazol-6-yl)-3,4-dihydroisoquinolin-1(2H)-one] the value was over 10000 nM; for `CC(=O)c1cccc(-c2cc(F)c3cnn(-c4cccc(C(F)(F)F)n4)c3c2)n1` [Example 207, 1-(6-(4-fluoro-1-(6-(trifluoromethyl)pyridin-2-yl)-1H-indazol-6-yl)pyridin-2-yl)ethanone], 1000 to 10000 nM; for `O=C1CCc2ccc(-c3ccc4cnn(-c5cccc(C(F)(F)F)n5)c4c3)nc21` [Example 210, 2-(1-(6-(trifluoromethyl)pyridin-2-yl)-1H-indazol-6-yl)-5H-cyclopenta[b]pyridin-7(6H)-one], over 10000 nM. As to `N#Cc1cccc(-c2ccc3cnn(-c4cccc(C(F)(F)F)n4)c3c2)n1` [Example 211, 6-(1-(6-(trifluoromethyl)pyridin-2-yl)-1H-indazol-6-yl)picolinonitrile], the IC50 was 1000 to 10000 nM. For `Nc1cc(-c2ccc3cnn(-c4cccc(C(F)(F)F)n4)c3c2)cc(C(=O)O)n1` [Example 213, 6-amino-4-(1-(6-(trifluoromethyl)pyridin-2-yl)-1H-indazol-6-yl)picolinic acid] the value was 1000 to 10000 nM; for `Cc1cccc(-n2ncc3c(C#N)cc(-c4cccc(C(C)N)n4)cc32)n1` (stereo not shown) [Example 214, 6-(6-(1-aminoethyl)pyridin-2-yl)-1-(6-methylpyridin-2-yl)-1H-indazole-4-carbonitrile], under 100 nM. The figure for `Cc1cccc(-n2cc3c(CN)cc(-c4cccc(C(C)N)n4)cc3n2)n1` (stereo not shown) [Example 215, 1-(6-(4-(aminomethyl)-2-(6-methylpyridin-2-yl)-2H-indazol-6-yl)pyridin-2-yl)ethanamine] is 1000 to 10000 nM.

As to `CC(c1cccc(-c2ccc3cnn(-c4cccc(C(F)(F)F)n4)c3c2)n1)N(C)C` (stereo not shown) [Example 216, N,N-dimethyl-1-(6-(1-(6-(trifluoromethyl)pyridin-2-yl)-1H-indazol-6-yl)pyridin-2-yl)ethanamine], the concentration for half-maximal inhibition (IC50) is under 100 nM.

`CC(=O)NCc1cc(-c2cccc(C(C)N)n2)cc2nn(-c3cccc(C)n3)cc12` (stereo not shown) [Example 217, N-((6-(6-(1-aminoethyl)pyridin-2-yl)-2-(6-methylpyridin-2-yl)-2H-indazol-4-yl)methyl)acetamide] had an IC50 of 1000 to 10000 nM. For `CC(=O)c1cccc(-c2cc(Cl)c3cnn(-c4cccc(C)n4)c3c2)n1` [Example 218, 1-(6-(4-chloro-1-(6-methylpyridin-2-yl)-1H-indazol-6-yl)pyridin-2-yl)ethanone] the value was 1000 to 10000 nM.

With `C/C(=N/O)c1cccc(-c2cc(Cl)c3cnn(-c4cccc(C)n4)c3c2)n1` [Example 219, (Z)-1-(6-(4-chloro-1-(6-methylpyridin-2-yl)-1H-indazol-6-yl)pyridin-2-yl)ethanone oxime], the IC50 lay in the range of 1000 to 10000 nM.

The compound `Cc1cccc(-n2ncc3ccc(-c4cccc(C(C)N(C)C)n4)cc32)n1` (stereo not shown) [Example 220, N,N-dimethyl-1-(6-(1-(6-methylpyridin-2-yl)-1H-indazol-6-yl)pyridin-2-yl)ethanamine] returned an IC50 of 100 to 1000 nM.

`C/C(=N/O)c1cccc(-c2ccc3cnc(-c4cccc(C(F)(F)F)n4)n3c2)n1` [Example 224, (Z)-1-(6-(3-(6-(trifluoromethyl)pyridin-2-yl)imidazo[1,5-a]pyridin-6-yl)pyridin-2-yl)ethanone oxime] registered a half-maximal inhibitory concentration (IC50) of over 10000 nM. The figure for `CC(=O)c1cccc(-c2cc(N(C)C(=O)OC(C)(C)C)c3cnn(-c4cccc(C)n4)c3c2)n1` [Example 225, tert-butyl (6-(6-acetylpyridin-2-yl)-1-(6-methylpyridin-2-yl)-1H-indazol-4-yl)(methyl)carbamate] is 1000 to 10000 nM.

In turn, `C/C(=N/O)c1cccc(-c2cc(N(C)C(=O)OC(C)(C)C)c3cnn(-c4cccc(C)n4)c3c2)n1` [Example 226, (Z)-tert-butyl (6-(6-(1-(hydroxyimino)ethyl)pyridin-2-yl)-1-(6-methylpyridin-2-yl)-1H-indazol-4-yl)(methyl)carbamate] showed an IC50 of over 10000 nM.

Compound `CNc1cc(-c2cccc(/C(C)=N\O)n2)cc2c1cnn2-c1cccc(C)n1` [Example 227, (Z)-1-(6-(4-(methylamino)-1-(6-methylpyridin-2-yl)-1H-indazol-6-yl)pyridin-2-yl)ethanone oxime] returned a half-maximal inhibitory concentration (IC50) of 1000 to 10000 nM. For `CCc1cccc(-n2ncc3ccc(-c4cccc(C(C)=O)n4)cc32)n1` [Example 228, 1-(6-(1-(6-ethylpyridin-2-yl)-1H-indazol-6-yl)pyridin-2-yl)ethanone] the value was 100 to 1000 nM; for `CC(=O)c1cccc(-c2ccc3cnn(-c4ccccn4)c3c2)n1` [Example 229, 1-(6-(1-(pyridin-2-yl)-1H-indazol-6-yl)pyridin-2-yl)ethanone], 1000 to 10000 nM.

Compound `C/C(=N\O)c1cccc(-c2ccc3cnn(-c4ccccn4)c3c2)n1` [Example 230, (E)-1-(6-(1-(pyridin-2-yl)-1H-indazol-6-yl)pyridin-2-yl)ethanone oxime] registered an IC50 of over 10000 nM. For `Cc1cccc(-n2ncc3ccc(-c4cc(N)cc(CN)n4)cc32)n1` [Example 231, 2-(aminomethyl)-6-(1-(6-methylpyridin-2-yl)-1H-indazol-6-yl)pyridin-4-amine] the value was under 100 nM; for `Cc1cccc(-n2ncc3ccc(-c4cccc(C(C)N(C)C)n4)cc32)n1` (stereo not shown) [Example 232, N,N-dimethyl-1-(6-(1-(6-methylpyridin-2-yl)-1H-indazol-6-yl)pyridin-2-yl)ethanamine], 100 to 1000 nM. The compound `CC(=O)c1cccc(-c2cc(N(C)C)c3cnn(-c4cccc(C)n4)c3c2)n1` [Example 233, 1-(6-(4-(dimethylamino)-1-(6-methylpyridin-2-yl)-1H-indazol-6-yl)pyridin-2-yl)ethanone] showed an IC50 of 1000 to 10000 nM. For `C/C(=N\O)c1cccc(-c2cc(N(C)C)c3cnn(-c4cccc(C)n4)c3c2)n1` [Example 234, (E)-1-(6-(4-(dimethylamino)-1-(6-methylpyridin-2-yl)-1H-indazol-6-yl)pyridin-2-yl)ethanone oxime] the value was 100 to 1000 nM; for `CCc1cccc(-n2ncc3ccc(-c4cccc(/C(C)=N/O)n4)cc32)n1` [Example 235, (E)-1-(6-(1-(6-ethylpyridin-2-yl)-1H-indazol-6-yl)pyridin-2-yl)ethanone oxime], 1000 to 10000 nM; for `CC(=O)c1cccc(-c2ccc3cnn(-c4cccc(C#N)n4)c3c2)n1` [Example 236, 6-(6-(6-acet6ylpyridin-2-yl)-1H-indazol-1-yl)picolinonitrile], over 10000 nM. Regarding `COC(=O)c1cccc(-n2ncc3ccc(-c4cccc(/C(C)=N/O)n4)cc32)n1` [Example 237, (E)-methyl 6-(6-(6-(1-(hydroxyimino)ethyl)pyridin-2-yl)-1H-indazol-1-yl)picolinate], the IC50 was over 10000 nM. The figure for `CC(=O)c1cccc(-c2ccc3cnn(-c4nc(C)cs4)c3c2)n1` [Example 239] is over 10000 nM. For `CC(N)c1cccc(-c2cc(F)c3cnn(-c4cccc(C(F)(F)F)n4)c3c2)n1` (stereo not shown) [Example 240, 1-(6-(4-fluoro-1-(6-(trifluoromethyl)pyridin-2-yl)-1H-indazol-6-yl)pyridin-2-yl)ethanamine] the value was under 100 nM. For `Cc1cccc(-n2ncc3ccc(-c4ccc(F)c(C(C)N)n4)cc32)n1` (stereo not shown) [Example 242, 1-(3-fluoro-6-(1-(6-methylpyridin-2-yl)-1H-indazol-6-yl)pyridin-2-yl)ethanamine], the IC50 was under 100 nM. The figure for `COC(=O)c1nc(-c2ccc3cnn(-c4cccc(C)n4)c3c2)ccc1N` [Example 243, methyl 3-amino-6-(1-(6-methylpyridin-2-yl)-1H-indazol-6-yl)picolinate] is 1000 to 10000 nM; for `Cc1cccc(-n2ncc3ccc(-c4cccc(C(O)C(F)(F)F)n4)cc32)n1` (stereo not shown) [Example 244, 2,2,2-trifluoro-1-(6-(1-(6-methylpyridin-2-yl)-1H-indazol-6-yl)pyridin-2-yl)ethanol] it is 100 to 1000 nM. For `CCOc1cc(-c2cccc(C(C)N)n2)cc2c1cnn2-c1cccc(C)n1` (stereo not shown) [Example 245, 1-(6-(4-ethoxy-1-(6-methylpyridin-2-yl)-1H-indazol-6-yl)pyridin-2-yl)ethanamine] the value was under 100 nM.

For the origin of these results see patent US10246456B2, “IRAK4 inhibiting agents” (BIOGEN MA INC., priority 2014, dated 2019).
